Experimental data taken from the supplement of paper PMC10307832.

How the values were obtained:
Assay in all cases: relative viability (nuclei count vs DMSO), 5 days (fraction); higher = more cells survive
Ispinesib + Crizotinib = compound: Cc1ccc(C(=O)N(CCCN)[C@@H](c2nc3cc(Cl)ccc3c(=O)n2Cc2ccccc2)C(C)C)cc1 [Ispinesib] + C[C@@H](Oc1cc(-c2cnn(C3CCNCC3)c2)cnc1N)c1c(Cl)ccc(F)c1Cl [Crizotinib] (partner 1 µM)
Outline: (§1)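 Relative viability divides the nuclei count in treated wells by that in vehicle wells. Lung cancer cell lines were seeded in 1536-well plates, dosed by pin tool the next day, and fixed and stained after 5 days in one step with final 0.05% Triton X-100, 1% formaldehyde and 1 ug/ml Hoechst. Dosing was a single drug or a fixed anchor-drug dose plus five library-drug doses (not always all listed) in √10 steps, and values are medians of duplicate plates imaged at 4×.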

Ispinesib + Lapatinib = compound: Cc1ccc(C(=O)N(CCCN)[C@@H](c2nc3cc(Cl)ccc3c(=O)n2Cc2ccccc2)C(C)C)cc1 [Ispinesib] + CS(=O)(=O)CCNCc1ccc(-c2ccc3ncnc(Nc4ccc(OCc5cccc(F)c5)c(Cl)c4)c3c2)o1 [Lapatinib] (partner 2 µM)
Outline: as §1

Linsitinib + OSI-027 = compound: C[C@]1(O)C[C@@H](c2nc(-c3ccc4ccc(-c5ccccc5)nc4c3)c3c(N)nccn32)C1 [Linsitinib] + COc1cccc2cc(-c3nc([C@H]4CC[C@H](C(=O)O)CC4)n4ncnc(N)c34)[nH]c12 [OSI-027] (partner 0.5 µM)
Outline: as §1

Ispinesib + Tozasertib = compound: Cc1ccc(C(=O)N(CCCN)[C@@H](c2nc3cc(Cl)ccc3c(=O)n2Cc2ccccc2)C(C)C)cc1 [Ispinesib] + Cc1cc(Nc2cc(N3CCN(C)CC3)nc(Sc3ccc(NC(=O)C4CC4)cc3)n2)n[nH]1 [Tozasertib] (partner 0.1 µM)
Outline: as §1

UMC-11
relative viability (Ispinesib + Crizotinib; first compound 0.001 µM): 0.547
relative viability (Ispinesib + Crizotinib; first compound 0.003162 µM): 0.636
relative viability (Ispinesib + Crizotinib; first compound 0.01 µM): 0.394
relative viability (Ispinesib + Crizotinib; first compound 0.03162 µM): 0.192
relative viability (Ispinesib + Crizotinib; first compound 0.1 µM): 0.376
relative viability (Ispinesib + Lapatinib; first compound 0.001 µM): 1.08
relative viability (Ispinesib + Lapatinib; first compound 0.003162 µM): 0.751
relative viability (Ispinesib + Lapatinib; first compound 0.01 µM): 0.723
relative viability (Ispinesib + Lapatinib; first compound 0.03162 µM): 0.294
relative viability (Ispinesib + Lapatinib; first compound 0.1 µM): 0.216
relative viability (Linsitinib + OSI-027; first compound 0.01 µM): 0.468
relative viability (Linsitinib + OSI-027; first compound 0.03162 µM): 0.433
relative viability (Linsitinib + OSI-027; first compound 0.1 µM): 0.552
relative viability (Linsitinib + OSI-027; first compound 1 µM): 0.432
relative viability (Ispinesib + Tozasertib; first compound 0.001 µM): 0.201
relative viability (Ispinesib + Tozasertib; first compound 0.003162 µM): 0.201
relative viability (Ispinesib + Tozasertib; first compound 0.01 µM): 0.212
relative viability (Ispinesib + Tozasertib; first compound 0.03162 µM): 0.189
relative viability (Ispinesib + Tozasertib; first compound 0.1 µM): 0.205
